Measured values as given in patent US10670605B2, “Cysteine reactive probes and uses thereof” (The Scripps Research Institute, priority 2015, dated 2020).

Experiments:
Assay in all cases: Competitive isoTOP-ABPP in situ (fragment-treated cells)
Assay type in all cases: cell-based
[1] = target: cysteines in MDA-MB-231 and Ramos cells (Homo sapiens, UniProt P04818)
[2] = target: cysteines in MDA-MB-231 and Ramos cells (Homo sapiens, UniProt Q13630); settings: 200 μM, insitu
[3] = target: T1, cysteines in MDA-MB-231 and Ramos cells (Homo sapiens, UniProt Q5JPI3)
T1 sequence (Q5JPI3 1-329): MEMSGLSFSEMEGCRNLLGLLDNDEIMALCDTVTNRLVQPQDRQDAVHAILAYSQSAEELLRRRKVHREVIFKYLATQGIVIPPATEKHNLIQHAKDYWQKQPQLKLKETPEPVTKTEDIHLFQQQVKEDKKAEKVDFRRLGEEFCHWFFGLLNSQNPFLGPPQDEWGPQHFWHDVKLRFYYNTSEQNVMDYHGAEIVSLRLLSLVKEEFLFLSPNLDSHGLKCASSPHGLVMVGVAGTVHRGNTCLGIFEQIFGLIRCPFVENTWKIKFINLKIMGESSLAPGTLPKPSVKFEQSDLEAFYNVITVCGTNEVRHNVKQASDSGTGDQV

[4] = target: cysteines in MDA-MB-231 and Ramos cells (Homo sapiens, UniProt Q96EY5)
[5] = target: cysteines in MDA-MB-231 and Ramos cells (Homo sapiens, UniProt Q9BRJ7)
[6] = target: T2, cysteines in MDA-MB-231 and Ramos cells (Homo sapiens, UniProt Q9NP73)
T2 sequence (Q9NP73 1-1137): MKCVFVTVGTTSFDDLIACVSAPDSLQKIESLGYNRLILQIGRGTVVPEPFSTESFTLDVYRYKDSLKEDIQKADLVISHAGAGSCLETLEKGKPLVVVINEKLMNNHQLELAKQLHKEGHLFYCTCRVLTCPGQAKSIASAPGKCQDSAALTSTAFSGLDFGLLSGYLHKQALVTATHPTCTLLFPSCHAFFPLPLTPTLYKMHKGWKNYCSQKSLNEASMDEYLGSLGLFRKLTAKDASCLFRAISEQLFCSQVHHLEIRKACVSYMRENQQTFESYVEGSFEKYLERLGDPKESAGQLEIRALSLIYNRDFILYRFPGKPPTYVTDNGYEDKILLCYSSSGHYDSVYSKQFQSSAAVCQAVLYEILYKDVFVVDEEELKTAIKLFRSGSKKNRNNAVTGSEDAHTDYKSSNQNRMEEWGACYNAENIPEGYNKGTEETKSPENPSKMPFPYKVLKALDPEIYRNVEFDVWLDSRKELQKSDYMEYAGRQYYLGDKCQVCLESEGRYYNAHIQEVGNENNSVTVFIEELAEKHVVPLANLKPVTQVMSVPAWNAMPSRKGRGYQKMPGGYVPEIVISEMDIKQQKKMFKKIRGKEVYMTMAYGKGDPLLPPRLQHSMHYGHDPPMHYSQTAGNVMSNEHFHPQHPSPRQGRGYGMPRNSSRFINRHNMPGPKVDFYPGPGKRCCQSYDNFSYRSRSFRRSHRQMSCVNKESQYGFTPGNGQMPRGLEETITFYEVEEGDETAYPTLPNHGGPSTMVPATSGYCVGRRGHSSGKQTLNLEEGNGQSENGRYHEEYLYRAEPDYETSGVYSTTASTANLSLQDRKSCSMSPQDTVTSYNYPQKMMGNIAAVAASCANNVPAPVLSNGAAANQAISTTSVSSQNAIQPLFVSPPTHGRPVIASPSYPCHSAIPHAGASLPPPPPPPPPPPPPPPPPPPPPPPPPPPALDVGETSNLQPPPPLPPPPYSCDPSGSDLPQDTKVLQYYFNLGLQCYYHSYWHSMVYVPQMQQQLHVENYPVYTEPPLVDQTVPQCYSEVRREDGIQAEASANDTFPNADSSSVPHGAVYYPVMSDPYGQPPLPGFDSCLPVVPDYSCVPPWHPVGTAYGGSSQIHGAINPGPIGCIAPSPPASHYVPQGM

[7] = target: cysteines in MDA-MB-231 and Ramos cells (Homo sapiens, UniProt Q96N67)
[8] = target: cysteines in MDA-MB-231 and Ramos cells (Homo sapiens, UniProt Q9Y6G9)
[9] = target: T3, cysteines in MDA-MB-231 and Ramos cells (Homo sapiens, UniProt Q8WVV9)
T3 sequence (Q8WVV9 1-542): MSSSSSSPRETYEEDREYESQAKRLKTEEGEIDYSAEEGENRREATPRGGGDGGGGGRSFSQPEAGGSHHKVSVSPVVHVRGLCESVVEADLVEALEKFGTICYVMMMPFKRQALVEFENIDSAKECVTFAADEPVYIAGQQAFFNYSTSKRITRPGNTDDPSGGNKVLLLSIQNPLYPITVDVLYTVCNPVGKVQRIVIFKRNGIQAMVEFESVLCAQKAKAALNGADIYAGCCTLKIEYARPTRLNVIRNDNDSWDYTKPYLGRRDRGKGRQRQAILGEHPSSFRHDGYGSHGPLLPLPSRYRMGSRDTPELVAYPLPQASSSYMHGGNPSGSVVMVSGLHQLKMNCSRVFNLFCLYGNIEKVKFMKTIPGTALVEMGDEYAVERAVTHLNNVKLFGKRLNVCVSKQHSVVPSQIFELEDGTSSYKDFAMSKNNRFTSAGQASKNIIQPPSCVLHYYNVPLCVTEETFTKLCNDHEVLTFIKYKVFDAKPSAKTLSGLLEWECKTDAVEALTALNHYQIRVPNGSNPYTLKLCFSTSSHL

Chain of cysteines in MDA-MB-231 and Ramos cells (Homo sapiens, UniProt Q13630) (Q13630 whole entry): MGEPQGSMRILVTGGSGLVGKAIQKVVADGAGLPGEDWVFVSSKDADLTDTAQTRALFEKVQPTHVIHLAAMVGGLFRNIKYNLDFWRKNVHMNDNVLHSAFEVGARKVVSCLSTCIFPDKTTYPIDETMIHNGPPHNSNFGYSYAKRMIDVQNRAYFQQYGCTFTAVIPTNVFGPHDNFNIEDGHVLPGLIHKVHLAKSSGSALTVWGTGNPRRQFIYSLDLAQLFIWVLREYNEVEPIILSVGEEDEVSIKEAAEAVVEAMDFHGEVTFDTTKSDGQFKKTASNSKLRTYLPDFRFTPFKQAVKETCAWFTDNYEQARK
Chain of cysteines in MDA-MB-231 and Ramos cells (Homo sapiens, UniProt Q9Y6G9) (Q9Y6G9 whole entry): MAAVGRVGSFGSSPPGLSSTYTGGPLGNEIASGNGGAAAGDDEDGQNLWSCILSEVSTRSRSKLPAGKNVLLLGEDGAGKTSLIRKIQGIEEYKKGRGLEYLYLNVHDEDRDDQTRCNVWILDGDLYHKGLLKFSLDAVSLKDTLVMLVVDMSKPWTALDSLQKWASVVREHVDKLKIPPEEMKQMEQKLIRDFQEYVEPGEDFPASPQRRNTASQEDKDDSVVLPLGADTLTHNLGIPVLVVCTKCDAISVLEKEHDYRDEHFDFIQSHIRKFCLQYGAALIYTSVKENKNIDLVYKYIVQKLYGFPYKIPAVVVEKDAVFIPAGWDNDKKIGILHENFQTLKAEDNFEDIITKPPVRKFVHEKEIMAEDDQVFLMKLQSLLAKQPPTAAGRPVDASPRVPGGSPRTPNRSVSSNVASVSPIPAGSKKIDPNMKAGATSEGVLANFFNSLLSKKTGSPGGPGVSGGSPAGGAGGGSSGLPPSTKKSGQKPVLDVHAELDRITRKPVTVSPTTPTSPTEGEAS
Chain of cysteines in MDA-MB-231 and Ramos cells (Homo sapiens, UniProt P04818) (P04818 whole entry): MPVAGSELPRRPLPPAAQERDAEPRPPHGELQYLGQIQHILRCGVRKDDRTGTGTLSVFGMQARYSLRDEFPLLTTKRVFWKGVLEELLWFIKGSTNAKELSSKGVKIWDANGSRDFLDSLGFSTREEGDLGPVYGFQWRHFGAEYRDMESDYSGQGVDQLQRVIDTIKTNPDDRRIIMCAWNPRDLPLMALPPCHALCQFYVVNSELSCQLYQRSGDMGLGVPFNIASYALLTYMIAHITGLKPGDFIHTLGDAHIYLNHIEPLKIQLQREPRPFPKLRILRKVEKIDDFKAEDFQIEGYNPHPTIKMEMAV
Chain of cysteines in MDA-MB-231 and Ramos cells (Homo sapiens, UniProt Q96N67) (Q96N67 whole entry): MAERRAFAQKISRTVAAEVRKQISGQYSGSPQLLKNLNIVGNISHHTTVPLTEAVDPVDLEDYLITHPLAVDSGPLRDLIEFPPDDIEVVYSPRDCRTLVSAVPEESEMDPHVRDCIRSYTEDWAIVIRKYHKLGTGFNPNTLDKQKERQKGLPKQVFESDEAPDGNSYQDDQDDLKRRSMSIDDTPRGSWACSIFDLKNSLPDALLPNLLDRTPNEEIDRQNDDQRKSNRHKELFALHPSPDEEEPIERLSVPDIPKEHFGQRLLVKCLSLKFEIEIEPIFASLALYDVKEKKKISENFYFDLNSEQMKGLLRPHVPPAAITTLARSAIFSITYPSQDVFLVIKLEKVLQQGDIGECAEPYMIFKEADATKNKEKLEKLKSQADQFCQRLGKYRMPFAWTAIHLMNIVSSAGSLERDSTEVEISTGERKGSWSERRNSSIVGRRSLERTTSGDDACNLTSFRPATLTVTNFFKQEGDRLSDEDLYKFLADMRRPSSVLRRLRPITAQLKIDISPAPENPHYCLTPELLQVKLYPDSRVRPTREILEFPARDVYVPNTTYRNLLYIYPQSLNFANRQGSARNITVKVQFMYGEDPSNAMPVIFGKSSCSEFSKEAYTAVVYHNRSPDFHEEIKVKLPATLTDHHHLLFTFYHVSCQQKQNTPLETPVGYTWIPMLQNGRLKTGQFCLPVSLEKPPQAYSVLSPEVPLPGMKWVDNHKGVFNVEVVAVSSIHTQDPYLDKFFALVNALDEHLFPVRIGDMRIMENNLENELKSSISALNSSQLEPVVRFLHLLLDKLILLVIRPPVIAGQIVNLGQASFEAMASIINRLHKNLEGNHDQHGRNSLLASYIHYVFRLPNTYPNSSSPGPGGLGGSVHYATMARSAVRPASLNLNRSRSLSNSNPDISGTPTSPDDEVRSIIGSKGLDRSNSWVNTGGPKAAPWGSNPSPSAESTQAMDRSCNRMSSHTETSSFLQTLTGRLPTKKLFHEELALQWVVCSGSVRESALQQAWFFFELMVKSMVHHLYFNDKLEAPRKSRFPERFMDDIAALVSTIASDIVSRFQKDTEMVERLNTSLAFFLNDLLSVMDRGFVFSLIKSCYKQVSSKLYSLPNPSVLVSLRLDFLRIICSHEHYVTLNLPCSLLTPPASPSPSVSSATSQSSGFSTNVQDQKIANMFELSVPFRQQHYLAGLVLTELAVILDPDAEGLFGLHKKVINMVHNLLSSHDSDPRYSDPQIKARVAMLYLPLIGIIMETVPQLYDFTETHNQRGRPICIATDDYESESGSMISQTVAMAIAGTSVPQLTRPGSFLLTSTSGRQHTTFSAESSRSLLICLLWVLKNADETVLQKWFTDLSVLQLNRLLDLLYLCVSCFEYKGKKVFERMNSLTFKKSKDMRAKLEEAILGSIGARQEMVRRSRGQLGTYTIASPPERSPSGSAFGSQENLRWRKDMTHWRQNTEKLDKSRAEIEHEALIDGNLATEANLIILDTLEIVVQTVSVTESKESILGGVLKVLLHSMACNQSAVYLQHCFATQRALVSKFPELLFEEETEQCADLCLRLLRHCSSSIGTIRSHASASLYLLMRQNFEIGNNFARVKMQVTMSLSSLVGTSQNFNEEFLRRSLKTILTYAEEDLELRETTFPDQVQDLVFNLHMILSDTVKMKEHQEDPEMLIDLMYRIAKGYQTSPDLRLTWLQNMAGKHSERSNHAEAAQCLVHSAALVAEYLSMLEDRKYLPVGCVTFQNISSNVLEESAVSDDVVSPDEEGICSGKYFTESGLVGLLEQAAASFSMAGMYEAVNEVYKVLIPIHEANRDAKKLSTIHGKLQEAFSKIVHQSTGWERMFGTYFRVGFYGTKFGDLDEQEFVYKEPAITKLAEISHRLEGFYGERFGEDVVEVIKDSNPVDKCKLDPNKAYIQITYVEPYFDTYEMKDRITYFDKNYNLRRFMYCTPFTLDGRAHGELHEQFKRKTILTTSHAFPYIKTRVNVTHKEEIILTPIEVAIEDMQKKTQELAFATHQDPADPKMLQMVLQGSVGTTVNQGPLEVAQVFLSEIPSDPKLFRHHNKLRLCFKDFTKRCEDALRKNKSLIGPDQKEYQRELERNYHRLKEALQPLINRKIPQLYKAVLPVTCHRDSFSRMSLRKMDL
Chain of cysteines in MDA-MB-231 and Ramos cells (Homo sapiens, UniProt Q9BRJ7) (Q9BRJ7 whole entry): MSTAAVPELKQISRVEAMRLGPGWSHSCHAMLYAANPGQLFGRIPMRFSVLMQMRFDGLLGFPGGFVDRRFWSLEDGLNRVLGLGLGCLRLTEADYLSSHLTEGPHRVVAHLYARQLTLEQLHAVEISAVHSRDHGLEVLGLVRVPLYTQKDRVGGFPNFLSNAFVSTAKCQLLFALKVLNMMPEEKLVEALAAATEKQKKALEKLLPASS

## COc1ccc2c(c1)CCCN2C(=O)CCl [compound 2]
[1]; 200 μM, insitu, 231
  isoTOP-ABPP reactivity P04818_C199 TYMS: 20.0
[2]; 231
  isoTOP-ABPP reactivity Q13630_C116 TSTA3: 20.0
[3]; 200 μM, insitu, 231
  isoTOP-ABPP reactivity Q5JPI3_C308 C3orf38: 2.9
[4]; 200 μM, insitu, 231
  isoTOP-ABPP reactivity Q96EY5_C231 FAM125A: 4.1
[5]; 200 μM, insitu, 231
  isoTOP-ABPP reactivity Q9BRJ7_C88 NUDT16L1: 20.0
[6]; 200 μM, insitu, 231
  isoTOP-ABPP reactivity Q9NP73_C86 ALG13: 20.0

## COc1ccc(C2CC(c3cccs3)=NN2C(=O)CCl)cc1 (stereo not drawn) [compound 4]
[1]; 100 μM in situ 231
  isoTOP-ABPP reactivity P04818_C199 TYMS: 20.0
[4]; 100 μM in situ 231
  isoTOP-ABPP reactivity Q96EY5_C231 FAM125A: 1.7
[7]; 100 μM in situ 231
  isoTOP-ABPP reactivity Q96N67_C2125 DOCK7: 4.1
[5]; 100 μM in situ 231
  isoTOP-ABPP reactivity Q9BRJ7_C88 NUDT16L1: 20.0
[6]; 100 μM in situ 231
  isoTOP-ABPP reactivity Q9NP73_C86 ALG13: 20.0
[8]; 100 μM in situ 231
  isoTOP-ABPP reactivity Q9Y6G9_C51 DYNC1LI1: 3.5

## COc1cc2c(cc1OC)CN(C(=O)CCl)CC2 [compound 8]
[7]; 200 μM, insitu, 231
  isoTOP-ABPP reactivity Q96N67_C2125 DOCK7: 5.4
[8]; 200 μM, insitu, 231
  isoTOP-ABPP reactivity Q9Y6G9_C51 DYNC1LI1: 4.1

## O=C(CCl)N1CCC(Cc2ccccc2)CC1 [compound 9]
[2]; 231
  isoTOP-ABPP reactivity Q13630_C116 TSTA3: 1.9
[4]; 200 μM, insitu, 231
  isoTOP-ABPP reactivity Q96EY5_C231 FAM125A: 1.9

## O=C(CCl)N1CCN(S(=O)(=O)c2ccccc2F)CC1 [compound 10]
[1]; 200 μM, insitu, 231
  isoTOP-ABPP ratio, cysteine P04818_C199: 1.5
[2]; 231
  isoTOP-ABPP ratio, cysteine Q13630_C116: 20.0
[5]; 200 μM, insitu, 231
  isoTOP-ABPP ratio, cysteine Q9BRJ7_C88: 20.0
[8]; 200 μM, insitu, 231
  isoTOP-ABPP ratio Q9Y6G9_C51: 4.9

## Cn1cc(S(=O)(=O)N2CCOCC2)cc1C(=O)NC(=O)CCl [compound 11]
[3]; 100 μM in situ 231
  isoTOP-ABPP ratio, cysteine Q5JPI3_C308: 1.0
[9]; 100 μM in situ 231
  isoTOP-ABPP ratio, cysteine Q8WVV9_C464: 0.9
[4]; 100 μM in situ 231
  isoTOP-ABPP ratio, cysteine Q96EY5_C231: 0.7
[6]; 100 μM in situ 231
  isoTOP-ABPP ratio Q9NP73_C86: 0.7

## O=C(CCl)NC(=O)NC12CC3CC(CC(C3)C1)C2 [compound 12]
[9]; 200 μM, insitu, 231
  isoTOP-ABPP ratio, cysteine Q8WVV9_C464: 20.0
[8]; 200 μM, insitu, 231
  isoTOP-ABPP ratio Q9Y6G9_C51: 6.5

## O=C(CCl)NCCc1c[nH]c2ccccc12 [compound 13]
[2]; ramos
  isoTOP-ABPP ratio, cysteine Q13630_C116: 1.2
[3]; 200 μM, insitu, 231
  isoTOP-ABPP ratio, cysteine Q5JPI3_C308: 1.1
[3]; 200 μM, insitu, ramos
  isoTOP-ABPP ratio, cysteine Q5JPI3_C308: 1.7
[6]; 200 μM, insitu, 231
  isoTOP-ABPP ratio Q9NP73_C86: 0.9
[6]; 200 μM, insitu, ramos
  isoTOP-ABPP ratio Q9NP73_C86: 1.4
[8]; 200 μM, insitu, ramos
  isoTOP-ABPP ratio Q9Y6G9_C51: 1.5

## O=C(CCl)NC12CC3CC(CC(C3)C1)C2 [compound 21]
[2]; 231
  isoTOP-ABPP ratio, cysteine Q13630_C116: 0.8
[3]; 200 μM, insitu, 231
  isoTOP-ABPP ratio, cysteine Q5JPI3_C308: 0.9
[9]; 200 μM, insitu, 231
  isoTOP-ABPP ratio, cysteine Q8WVV9_C464: 1.4
[4]; 200 μM, insitu, 231
  isoTOP-ABPP ratio, cysteine Q96EY5_C231: 0.7
[8]; 200 μM, insitu, 231
  isoTOP-ABPP ratio Q9Y6G9_C51: 0.6

## CC(C)CCOCCNC(=O)CCl [compound 27]
[1]; 200 μM, insitu, 231
  isoTOP-ABPP ratio P04818_C199: 0.5
[3]; 200 μM, insitu, 231
  isoTOP-ABPP ratio Q5JPI3_C308: 0.7
[4]; 200 μM, insitu, 231
  isoTOP-ABPP ratio Q96EY5_C231: 0.6
[7]; 200 μM, insitu, 231
  isoTOP-ABPP ratio Q96N67_C2125: 0.9
[6]; 200 μM, insitu, 231
  isoTOP-ABPP ratio Q9NP73_C86: 0.4
[8]; 200 μM, insitu, 231
  isoTOP-ABPP ratio Q9Y6G9_C51: 0.6

## COc1ccccc1OCCNC(=O)CCl [compound 28]
[5]; 200 μM, insitu, 231
  isoTOP-ABPP ratio Q9BRJ7_C88: 1.7
[8]; 200 μM, insitu, 231
  isoTOP-ABPP ratio Q9Y6G9_C51: 0.7

## O=C(CCl)N1CCN(CC(=O)N2CCOCC2)CC1 [compound 29]
[1]; 200 μM, insitu, ramos
  isoTOP-ABPP ratio P04818_C199: 2.5
[3]; 200 μM, insitu, ramos
  isoTOP-ABPP ratio Q5JPI3_C308: 1.3
[4]; 200 μM, insitu, ramos
  isoTOP-ABPP ratio Q96EY5_C231: 1.1
[6]; 200 μM, insitu, ramos
  isoTOP-ABPP ratio Q9NP73_C86: 2.0

## C=CC(=O)N(Cc1cccnc1)c1cc(C(F)(F)F)cc(C(F)(F)F)c1 [compound 31]
[7]; 200 μM, insitu, 231
  isoTOP-ABPP ratio Q96N67_C2125: 0.8
[5]; 200 μM, insitu, 231
  isoTOP-ABPP ratio Q9BRJ7_C88: 2.9
[8]; 200 μM, insitu, ramos
  isoTOP-ABPP ratio Q9Y6G9_C51: 1.6

## C=CC(=O)Nc1cc(F)c(N2CCN(C(=O)OC(C)(C)C)CC2)c(F)c1 [compound 38]
[1]; 200 μM, insitu, 231
  isoTOP-ABPP ratio P04818_C199: 20.0
[9]; 200 μM, insitu, 231
  isoTOP-ABPP ratio Q8WVV9_C464: 1.5
[4]; 200 μM, insitu, 231
  isoTOP-ABPP ratio Q96EY5_C231: 1.8
[7]; 200 μM, insitu, 231
  isoTOP-ABPP ratio Q96N67_C2125: 1.5
[5]; 200 μM, insitu, 231
  isoTOP-ABPP ratio Q9BRJ7_C88: 0.4
[6]; 200 μM, insitu, 231
  isoTOP-ABPP ratio Q9NP73_C86: 1.3

## Cc1ccc(C=C(C#N)C(=O)NCCN2CCOCC2)cc1 [compound 41]
[1]; 200 μM, insitu, 231
  isoTOP-ABPP ratio P04818_C199: 0.7
[3]; 200 μM, insitu, 231
  isoTOP-ABPP ratio Q5JPI3_C308: 0.7
[7]; 200 μM, insitu, 231
  isoTOP-ABPP ratio Q96N67_C2125: 0.7
[6]; 200 μM, insitu, 231
  isoTOP-ABPP ratio Q9NP73_C86: 0.5
[8]; 200 μM, insitu, 231
  isoTOP-ABPP ratio Q9Y6G9_C51: 0.7

## CC1CCc2ccccc2N1C(=O)CCl (stereo not drawn) [compound 45]
[1]; 200 μM, insitu, 231
  isoTOP-ABPP ratio P04818_C199: 20.0
[2]; 231
  isoTOP-ABPP ratio Q13630_C116: 20.0
[9]; 200 μM, insitu, 231
  isoTOP-ABPP ratio Q8WVV9_C464: 20.0
[5]; 200 μM, insitu, 231
  isoTOP-ABPP ratio Q9BRJ7_C88: 1.6
[6]; 200 μM, insitu, 231
  isoTOP-ABPP ratio Q9NP73_C86: 20.0

## O=C(CCl)Nc1cccc2ncccc12 [compound 51]
[1]; 200 μM, insitu, 231
  isoTOP-ABPP ratio P04818_C199: 20.0
[9]; 200 μM, insitu, 231
  isoTOP-ABPP ratio Q8WVV9_C464: 3.2
[5]; 200 μM, insitu, 231
  isoTOP-ABPP ratio Q9BRJ7_C88: 1.0
[6]; 200 μM, insitu, 231
  isoTOP-ABPP ratio Q9NP73_C86: 1.3
